Data from the OligoGym collection.
Where “and” joins values, the source holds several entries; their conditions need not be identical. Equal values may be shown once. After the bases stand the sugars from the 5' end (letter, count) and the backbone: PS all phosphorothioate, else s phosphorothioate and o phosphodiester by linkage. Methylation of C is not given here. e = 2'-O-(2-methoxyethyl) (MOE); k = constrained ethyl (cEt); d = 2'-deoxy (DNA)

These sequences were tested against IRF4. Settings: ASO, MM.1R, 0.0625 µM.

Row | Sequence | target mRNA inhibition [%]
1 | ACGAGGTTGCCGAGAT (sugars k3 d10 k3, PS) | -16

Same assay, conditions: ASO, MM.1R, 0.25 µM

Row | Sequence | target mRNA inhibition [%]
2 | ACGAGGTTGCCGAGAT (sugars k3 d10 k3, PS) | 7

Same assay, conditions: ASO, MM.1R, 1 µM

Row | Sequence | target mRNA inhibition
3 | AATCACGAGGTTGCCG (sugars k3 d10 k3, PS) | -6%
4 | AATCTTCTGGATTGCT (sugars k3 d10 k3, PS) | 14%
5 | AATGGAGATACTTGTA (sugars k3 d10 k3, PS) | 26%
6 | AATGGCAGCACCGTGT (sugars k3 d10 k3, PS) | 0%
7 | AATGTGTATTACTCTT (sugars k2 d9 e3 k2, PS) | 15% and 17%
8 | AATGTGTATTACTCTT (sugars kdddddddddkekeke, PS) | 12% and 15%
9 | AATGTGTATTACTCTT (sugars kkdddddddddekeke, PS) | 24% and 30%
10 | ACACTTTTAGAGAGGA (sugars kkddddddddddkeke, PS) | 14%
11 | ACACTTTTAGAGAGGA (sugars kkkdddddddddkeke, PS) | 37%
12 | ACAGTGACTTGCATCC (sugars kkdddddddddkdkdk, PS) | 18%
13 | ACCGATGCTTCAAGAC (sugars k3 d10 k3, PS) | 31% and 56%
14 | ACCGGTAGAGTGAGAT (sugars k3 d10 k3, PS) | 16% and 2%
15 | ACCTACACAGGCTAAT (sugars k3 d10 k3, PS) | -4%
16 | ACCTCAGTTTGTGAAG (sugars e1 k2 d9 k2 e2, PS) | 2%
17 | ACCTCAGTTTGTGAAG (sugars kkdddddddddkekek, PS) | 13%
18 | ACCTCAGTTTGTGAAG (sugars kkkdddddddddkeke, PS) | 8%
19 | ACCTCAGTTTGTGAAG (sugars kkkddddddddkekek, PS) | -3%
20 | ACGAGGTTGCCGAGAT (sugars k3 d10 k3, PS) | 62% and 41%
21 | ACGGAAGTTTACACTG (sugars k2 d9 e3 k2, PS) | 15%
22 | ACGGAAGTTTACACTG (sugars k3 d9 k3 e1, PS) | 29%
23 | ACGGAAGTTTACACTG (sugars kdddddddddkekeke, PS) | 2%

Row | Sequence | target mRNA inhibition
24 | ACGGAAGTTTACACTG (sugars kkkddddddddkekek, PS) | 14%
25 | ACGTGTGCTTGCCAAG (sugars k2 d9 e3 k2, PS) | 44% and 43%
26 | ACGTGTGCTTGCCAAG (sugars k3 d10 k3, PS) | 54% and 55%
27 | ACGTGTGCTTGCCAAG (sugars kddddddddddkekek, PS) | 47% and 37%
28 | ACGTGTGCTTGCCAAG (sugars kkdddddddddekeke, PS) | 59% and 61%
29 | ACTACCTGCAGCCAAG (sugars k3 d10 k3, PS) | 4%
30 | ACTGCTTGAGGTTTTC (sugars kdddddddddkekeke, PS) | 21%
31 | ACTGCTTGAGGTTTTC (sugars kkddddddddddkeke, PS) | 21%
32 | ACTGCTTGAGGTTTTC (sugars kkdddddddddkekek, PS) | 24%
33 | ACTGCTTGAGGTTTTC (sugars kkkdddddddddkeke, PS) | 38%
34 | ACTGTATGGAACCCCA (sugars k3 d10 k3, PS) | 30%
35 | ACTTATAGCACTCTCC (sugars k3 d10 k3, PS) | 1%
36 | ACTTGTGACCCACATA (sugars k3 d10 k3, PS) | -4%
37 | ACTTTTAGAGAGGAGA (sugars kkdddddddddkdkdk, PS) | 34%
38 | ACTTTTAGAGAGGAGA (sugars kkkddddddddkekek, PS) | 21%
39 | AGACAGTGCGCCCCAA (sugars k3 d10 k3, PS) | -17%
40 | AGAGTGAGATGCGGAG (sugars k3 d10 k3, PS) | 65% and 63%
41 | AGATCTGTGGTAATCT (sugars k3 d10 k3, PS) | -3%
42 | AGATGCGGAGGTTCCT (sugars k3 d10 k3, PS) | 32%
43 | AGCAAGAGCTTACTGT (sugars k3 d10 k3, PS) | -6%
44 | AGCATTTTATCATCCG (sugars kkkdddddddddkeke, PS) | 42%

Same assay, conditions: ASO, MM.1R, 4 µM

Row | Sequence | target mRNA inhibition [%]
45 | ACGAGGTTGCCGAGAT (sugars k3 d10 k3, PS) | 78

Same assay, conditions: ASO, SK-MEL-28, 0.185 µM

Row | Sequence | target mRNA inhibition [%]
46 | ACTATAATTGGCACGA (sugars k3 d10 k3, PS) | 6

Same assay, conditions: ASO, SK-MEL-28, 4 µM

Row | Sequence | target mRNA inhibition
47 | AATCACTTGTCTTGGG (sugars k3 d10 k3, PS) | 60%
48 | AATCAGATGATGTCTA (sugars k4 d8 k4, PS) | -13%
49 | AATCAGATGTCACTGA (sugars k3 d10 k3, PS) | 3%
50 | AATGAACGGAAGTTTA (sugars k3 d10 k3, PS) | 33%
51 | AATGTAGGGATACAGC (sugars k3 d10 k3, PS) | 62%
52 | AATGTTCAGCTTTTCC (sugars k3 d10 k3, PS) | 63%
53 | AATTACTGCTTGAGGT (sugars k3 d10 k3, PS) | 58%
54 | ACAAGCATAAAAGGTT (sugars k4 d8 k4, PS) | 40%
55 | ACACACCACTATTCGA (sugars k3 d10 k3, PS) | 35%
56 | ACACGGGAATTTCCAT (sugars k3 d10 k3, PS) | 56%
57 | ACAGAGGACTTCGGGA (sugars k3 d10 k3, PS) | -36%
58 | ACAGGACCTGGTCCAG (sugars k4 d8 k4, PS) | 7%
59 | ACAGTGATCATCAATG (sugars k3 d10 k3, PS) | 56%
60 | ACATAAAGGACCCCGC (sugars k3 d10 k3, PS) | 28%
61 | ACATACCTACAAGCAG (sugars k3 d10 k3, PS) | 45%
62 | ACCAAATTCCCGGAGG (sugars k3 d10 k3, PS) | 7%
63 | ACCAGAATTGCAAGAG (sugars k3 d10 k3, PS) | 60%
64 | ACCCAAGACTCCCAGA (sugars k3 d10 k3, PS) | 45%
65 | ACCCAGAAGTACGAGC (sugars k3 d10 k3, PS) | 21%
66 | ACCCAGCTAATGAGAG (sugars k3 d10 k3, PS) | 35%
67 | ACCTACTCCATCACTT (sugars k3 d10 k3, PS) | -3%
68 | ACCTCAGTTTGTGAAG (sugars k3 d10 k3, PS) | 39%

Row | Sequence | target mRNA inhibition
69 | ACCTGAATAGGAAGAT (sugars k3 d10 k3, PS) | 31%
70 | ACCTTATGCTTGGCTC (sugars k4 d8 k4, PS) | 30%
71 | ACCTTTACTTCATTCC (sugars k3 d10 k3, PS) | 64%
72 | ACGAAAACAGCCGCCG (sugars k3 d10 k3, PS) | 14%
73 | ACGAAACACAGTCTGC (sugars k3 d10 k3, PS) | 52%
74 | ACGAAGATTCAAAAGG (sugars k3 d10 k3, PS) | 36%
75 | ACGAGAACGCACGGAC (sugars k3 d10 k3, PS) | 40%
76 | ACGCAATCTTCTGCTG (sugars k3 d10 k3, PS) | 52%
77 | ACGCAGTGCACCTGTG (sugars k3 d10 k3, PS) | -7%
78 | ACGCGCGGAGGACCTC (sugars k3 d10 k3, PS) | 13%
79 | ACGCTTGCAGCTCTGA (sugars k3 d10 k3, PS) | 48%
80 | ACTATAATTGGCACGA (sugars k3 d10 k3, PS) | 69%
81 | ACTATGGTAGGAGTGT (sugars k3 d10 k3, PS) | 25%
82 | ACTATTAAGAACTTGC (sugars k3 d10 k3, PS) | 21%
83 | ACTCAATGTGCACCTT (sugars k3 d10 k3, PS) | 29%
84 | ACTGAACCATGTTCCT (sugars k3 d10 k3, PS) | 51%
85 | ACTGACTAACAGGGAG (sugars k3 d10 k3, PS) | 49%
86 | ACTGCTGTGTGTCAAA (sugars k3 d10 k3, PS) | -6%
87 | ACTGCTTGAGGTTTTC (sugars k3 d10 k3, PS) | 58%
88 | ACTGGATCTGAATTGT (sugars k3 d10 k3, PS) | 57%
89 | ACTGGCATTGAGACGG (sugars k3 d10 k3, PS) | 72% and 79%
90 | ACTGGGTACATGGCAG (sugars k3 d10 k3, PS) | 59%

Row | Sequence | target mRNA inhibition
91 | ACTGTTAAAGCAGCAT (sugars k3 d10 k3, PS) | 71%
92 | ACTGTTTTAAGAGGCG (sugars k3 d10 k3, PS) | 68% and 70%
93 | ACTTAAAATCCACACC (sugars k3 d10 k3, PS) | 7%
94 | AGAAAACCCCCCTCTC (sugars k3 d10 k3, PS) | 23%
95 | AGAAACGAGTTGACAC (sugars k3 d10 k3, PS) | 15%
96 | AGAAAGAGCTGGTAGG (sugars k3 d10 k3, PS) | 36%
97 | AGAACGAGGTAAATCT (sugars k3 d10 k3, PS) | 40%
98 | AGAAGTACGAGCACAT (sugars k3 d10 k3, PS) | 44%
99 | AGACAGACTTCCAAGA (sugars k3 d10 k3, PS) | 36%
100 | AGACAGAGAGTCCGAC (sugars k3 d10 k3, PS) | 7%
101 | AGACGAAAACAGCCGC (sugars k3 d10 k3, PS) | 25%
102 | AGATAACGAGGTGCCT (sugars k3 d10 k3, PS) | 23%
103 | AGATAAGAAGCACTGG (sugars k3 d10 k3, PS) | 25%
104 | AGATGTATACATCACT (sugars k3 d10 k3, PS) | 76% and 71%
105 | AGCAAAGAGGGTCACA (sugars k3 d10 k3, PS) | 68%
106 | AGCAACACGGGAATTT (sugars k3 d10 k3, PS) | 57%
107 | AGCAATTGAAATGGAG (sugars k3 d10 k3, PS) | 22%
108 | AGCACATGTCAACAGT (sugars k3 d10 k3, PS) | 31%
109 | AGCATCTAAGGCAAGC (sugars k3 d10 k3, PS) | 57%
110 | AGCCACTGGCGGAGCT (sugars k3 d10 k3, PS) | 38%
111 | AGCCAGAGCAGTAAAC (sugars k3 d10 k3, PS) | 15%

Same assay, conditions: ASO, SK-MEL-28, 5 µM

Row | Sequence | target mRNA inhibition [%]
112 | ACTATAATTGGCACGA (sugars k3 d10 k3, PS) | 72

Same assay, conditions: ASO, SK-MEL-28, 15 µM

Row | Sequence | target mRNA inhibition [%]
113 | ACTATAATTGGCACGA (sugars k3 d10 k3, PS) | 90
